# According to ChEMBL document CHEMBL1134870, “Design and synthesis of novel inhibitors of gelatinase B” (Bioorg Med Chem Lett, 2002):
# Target: Matrix metalloproteinase-9 (Mus musculus, UniProt P41245)
# Assay: Inhibitory concentration was determined against murine gelatinase B
# Matrix metalloproteinase-9, sequence (P41245 whole entry): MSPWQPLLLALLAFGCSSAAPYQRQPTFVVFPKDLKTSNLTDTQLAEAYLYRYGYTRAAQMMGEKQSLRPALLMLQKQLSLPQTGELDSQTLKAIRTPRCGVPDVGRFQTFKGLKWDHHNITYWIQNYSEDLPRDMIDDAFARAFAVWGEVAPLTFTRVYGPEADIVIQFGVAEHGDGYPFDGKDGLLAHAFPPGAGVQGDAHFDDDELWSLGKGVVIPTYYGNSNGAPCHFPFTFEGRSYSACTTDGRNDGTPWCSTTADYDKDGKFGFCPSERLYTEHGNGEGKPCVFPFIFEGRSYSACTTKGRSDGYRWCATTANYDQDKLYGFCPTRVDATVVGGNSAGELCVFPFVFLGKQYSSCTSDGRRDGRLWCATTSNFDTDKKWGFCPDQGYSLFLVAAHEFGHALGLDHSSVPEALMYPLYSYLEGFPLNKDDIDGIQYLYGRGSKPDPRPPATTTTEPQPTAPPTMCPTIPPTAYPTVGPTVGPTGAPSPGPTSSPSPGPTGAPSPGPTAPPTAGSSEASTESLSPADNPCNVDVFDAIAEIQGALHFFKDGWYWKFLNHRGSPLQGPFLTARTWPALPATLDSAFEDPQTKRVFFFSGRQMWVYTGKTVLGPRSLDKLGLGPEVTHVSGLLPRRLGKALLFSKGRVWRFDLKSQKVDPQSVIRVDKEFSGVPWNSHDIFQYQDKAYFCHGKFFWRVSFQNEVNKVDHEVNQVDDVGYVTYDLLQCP
row,Compound,IC50 [µM]
1,OCc1nc2cc(NCc3ccccc3OCc3ccccc3)ccc2[nH]1,> 100
2,CC(=O)NCc1nc2ccc(NCc3ccccc3OCc3ccccc3)cc2[nH]1,> 100
3,NCc1nc2ccc(NCc3ccccc3)cc2[nH]1,195
4,NCc1nc2ccc(NCC3CC=CCC3)cc2[nH]1 (centres undefined),92
5,NCc1nc2cc(NC(=O)/C=C/c3cccnc3)ccc2[nH]1,85
6,NCc1nc2ccc(NCc3ccccc3OCc3ccccc3)cc2[nH]1,13
7,NCc1nc2ccc(NC(=O)c3ccccc3OCc3ccccc3)cc2[nH]1,48
8,NCc1nc2ccc(NC(=O)c3ccc(C(=O)c4ccccc4)cc3)cc2[nH]1,46
9,NCc1nc2ccc(NCc3ccccc3Sc3ccccc3)cc2[nH]1,56
10,NCc1nc2cc(N)ccc2[nH]1,> 500
11,NCc1cc2cc(NCc3ccccc3OCc3ccccc3)ccc2[nH]1,72
12,NCc1nc2cc(NC(=O)/C=C/c3c(F)cccc3F)ccc2[nH]1,75
13,CC(=O)N(Cc1ccccc1OCc1ccccc1)c1ccc2nc(CN)[nH]c2c1,83
14,Cc1nc2cc(NCc3ccccc3OCc3ccccc3)ccc2[nH]1,> 300
15,NCc1nc2ccc(NCc3ccc(OCc4ccccc4)cc3)cc2[nH]1,51

# Target: Matrix metalloproteinase-9 (Mus musculus) (UniProt P41245)
# Assay: Inhibitory activity against murine gelatinase B at 5 mM was determined
# Matrix metalloproteinase-9 (Mus musculus), sequence (P41245 whole entry): as above
row,Compound,inhibition [%]
1,OCc1nc2ccccc2[nH]1,26
2,OCc1nc2ccccc2s1,85
3,NCc1ccccn1,75
4,Oc1ccccn1,< 5
5,CCNCCN,< 5
6,NCCNCCN,< 5
7,NCc1nc2ccccc2[nH]1,65
8,CC(=O)Nc1nc(C)cs1,< 5
9,NCCc1ccccn1,< 5
10,CC(=O)C1CCCC1=O (centres undefined),76
11,O=C(O)c1ccccc1,< 5
12,Nc1ccccc1N,10
13,CC(=O)NO,< 5
14,NCCN,< 5
